Literature values in patent US11083779B2, “Method for treatment of encephalopathy” (priority 2018, dated 2021).

Test system: toxic encephalopathy
Details: PIRACETAM i.v. 10-15 minutes before transcranial electrical stimulation, two steps (77 Hz, 10 Hz)

For `NC(=O)CN1CCCC1=O` [PIRACETAM®, PIRACETAM], the “patient symptoms after treatment” value is given as “decrease of headaches, giddiness and the improvement of sleep”.
